Test results published in patent US8012971B2, “Therapeutic agent for chronic obstructive pulmonary disease” (Dainippon Sumitomo Pharma Co., Ltd., priority 2005, dated 2011).

Tested on: Guinea Pig Chronic Obstructive Pulmonary Disease (COPD) Model
Assay: Histological investigations of lung in guinea pig COPD model
Assay type: in vivo
Conditions: 8 animals
Experimental: An evaluation was carried out as follows according to a report of Kosuke MORIZUMI, Junichi FUCHIGAMI et al., 2002, The 75th Annual Meeting of the Japanese Pharmacological Society (2002) Abstract No. P-259, “Study of a chronic obstructive pulmonary disease-Effects of theophylline on respiratory function and lung function of guinea pigs in an exposure of cigarette smoke.”
Male Hartley strain guinea pigs (purchased from Japan SLC, Inc.) were taken in a cigarette exposure holder (RMH-TUBES, manufactured by Muenster Ltd.) to secure them to an exposure chamber (Flow-past type nose-only inhalation chamber, manufactured by Muenster Ltd.), and allowed to inhale cigarette smoke (Hi-Lite, manufactured by Japan Tobacco Inc.) for 60 minutes per day for 5 days in a week, totally 4 weeks using a smoking exposure equipment (Hamburg II, manufactured by Borgwaldt Technik), while the exposure was carried out for 4 days in the 4th week. • (2) Drug Administrations
Each 0.5% MC suspension of a test drug was orally administered daily in 5 ml/weight (kg) once a day for 25 days from the first day of the exposure. To a sham-exposure group and a control group was orally administered a 0.5% MC suspension in a similar manner. Any oral administrations were carried out 0.5 to 1 hours before exposures on a cigarette-smoke-exposure day or after measurements when measuring respiratory functions. A drug was not administered on the day for measurement of respiratory functions after finishing the 4th week of the exposure. • (3) Measurements of Airway Resistance
After collection of BALF, trachea and lung were isolated. The ligation site of the left lung was opened, injected neutral formalin buffer into trachea, bronchi and lung at the pressure of 20 cm H2O via cannula fixed on the side of the lung, and the lung tissue was extended to be fixed. According to a conventional method, tissue section samples were produced using posterior lobe of the left lung and hematoxylin-eosin (HE) stain was carried out. Any other lung tissues were stored in neutral formalin buffers. Drug efficacies of the produced tissue samples were evaluated by scoring tissue changes under the microscope. The criteria of scores were shown as follows: −: none, ±: minimal, +: mild, ++: moderate, +++: severe. Each quantification was calculated as 0, 1, 2, 3, 4.

Which results are given for CNC(=O)NCCn1c(-c2ccc(N3CCOCC3)cc2)csc1=Nc1cccc(F)c1 [SMP-028, N-{2-[2-[(3-fluorophenyl)imino]-4-(4-morpholinophenyl)-thiazol-3(2H)-yl]ethyl}-N′-methylurea]?
Number of animals with grade + (mild): A. Hyperplasia, epithelial cell, bronchus (10 mg/kg/day for 25 days): 0; Number of animals with grade + (mild): B. Cellular exudation, neutrophil/eosinophil, lumen, bronchiole (10 mg/kg/day for 25 days): 0; Number of animals with grade + (mild): C. Thickening, alveolar wall (10 mg/kg/day for 25 days): 2; Number of animals with grade + (mild): D. Accumulation, foamy/macrophage-like cell, alveolus (10 mg/kg/day for 25 days): 2; Number of animals with grade + (mild): E. Cellular infiltration, neutrophil, alveolus (10 mg/kg/day for 25 days): 0; Number of animals with grade ++ (moderate): A. Hyperplasia, epithelial cell, bronchus (10 mg/kg/day for 25 days): 0; Number of animals with grade ++ (moderate): B. Cellular exudation, neutrophil/eosinophil, lumen, bronchiole (10 mg/kg/day for 25 days): 0; Number of animals with grade ++ (moderate): C. Thickening, alveolar wall (10 mg/kg/day for 25 days): 0; Number of animals with grade ++ (moderate): D. Accumulation, foamy/macrophage-like cell, alveolus (10 mg/kg/day for 25 days): 0; Number of animals with grade ++ (moderate): E. Cellular infiltration, neutrophil, alveolus (10 mg/kg/day for 25 days): 0; Number of animals with grade +++ (severe): A. Hyperplasia, epithelial cell, bronchus (10 mg/kg/day for 25 days): 0; Number of animals with grade +++ (severe): B. Cellular exudation, neutrophil/eosinophil, lumen, bronchiole (10 mg/kg/day for 25 days): 0; Number of animals with grade +++ (severe): C. Thickening, alveolar wall (10 mg/kg/day for 25 days): 0; Number of animals with grade +++ (severe): D. Accumulation, foamy/macrophage-like cell, alveolus (10 mg/kg/day for 25 days): 0; Number of animals with grade +++ (severe): E. Cellular infiltration, neutrophil, alveolus (10 mg/kg/day for 25 days): 0; Number of animals with grade ± (minimal): A. Hyperplasia, epithelial cell, bronchus (10 mg/kg/day for 25 days): 1; Number of animals with grade ± (minimal): B. Cellular exudation, neutrophil/eosinophil, lumen, bronchiole (10 mg/kg/day for 25 days): 1; Number of animals with grade ± (minimal): C. Thickening, alveolar wall (10 mg/kg/day for 25 days): 2; Number of animals with grade ± (minimal): D. Accumulation, foamy/macrophage-like cell, alveolus (10 mg/kg/day for 25 days): 3; Number of animals with grade ± (minimal): E. Cellular infiltration, neutrophil, alveolus (10 mg/kg/day for 25 days): 0; Number of animals with grade − (none): A. Hyperplasia, epithelial cell, bronchus (10 mg/kg/day for 25 days): 7; Number of animals with grade − (none): B. Cellular exudation, neutrophil/eosinophil, lumen, bronchiole (10 mg/kg/day for 25 days): 7; Number of animals with grade − (none): C. Thickening, alveolar wall (10 mg/kg/day for 25 days): 4; Number of animals with grade − (none): D. Accumulation, foamy/macrophage-like cell, alveolus (10 mg/kg/day for 25 days): 3; Number of animals with grade − (none): E. Cellular infiltration, neutrophil, alveolus (10 mg/kg/day for 25 days): 8; Number of animals with grade + (mild): A. Hyperplasia, epithelial cell, bronchus (30 mg/kg/day for 25 days): 0; Number of animals with grade + (mild): B. Cellular exudation, neutrophil/eosinophil, lumen, bronchiole (30 mg/kg/day for 25 days): 0; Number of animals with grade + (mild): C. Thickening, alveolar wall (30 mg/kg/day for 25 days): 1; Number of animals with grade + (mild): D. Accumulation, foamy/macrophage-like cell, alveolus (30 mg/kg/day for 25 days): 2; Number of animals with grade + (mild): E. Cellular infiltration, neutrophil, alveolus (30 mg/kg/day for 25 days): 0; Number of animals with grade ++ (moderate): A. Hyperplasia, epithelial cell, bronchus (30 mg/kg/day for 25 days): 0; Number of animals with grade ++ (moderate): B. Cellular exudation, neutrophil/eosinophil, lumen, bronchiole (30 mg/kg/day for 25 days): 0; Number of animals with grade ++ (moderate): C. Thickening, alveolar wall (30 mg/kg/day for 25 days): 0
